Data from ChEMBL document CHEMBL4630901 (2021).

Tests used:
[1] = target: Sodium-dependent dopamine transporter (Homo sapiens) (UniProt Q01959); settings: Compound concentration 10.0 uM
[2] = target: 5-hydroxytryptamine receptor 1E (Homo sapiens) (UniProt P28566); settings: Compound concentration 10.0 uM
[3] = target: Sigma non-opioid intracellular receptor 1 (Homo sapiens) (UniProt Q99720); settings: Compound concentration 10.0 uM
[4] = target: T1, Muscarinic acetylcholine receptor M4 (Homo sapiens) (UniProt P08173); settings: Compound concentration 10.0 uM
T1 sequence (whole entry): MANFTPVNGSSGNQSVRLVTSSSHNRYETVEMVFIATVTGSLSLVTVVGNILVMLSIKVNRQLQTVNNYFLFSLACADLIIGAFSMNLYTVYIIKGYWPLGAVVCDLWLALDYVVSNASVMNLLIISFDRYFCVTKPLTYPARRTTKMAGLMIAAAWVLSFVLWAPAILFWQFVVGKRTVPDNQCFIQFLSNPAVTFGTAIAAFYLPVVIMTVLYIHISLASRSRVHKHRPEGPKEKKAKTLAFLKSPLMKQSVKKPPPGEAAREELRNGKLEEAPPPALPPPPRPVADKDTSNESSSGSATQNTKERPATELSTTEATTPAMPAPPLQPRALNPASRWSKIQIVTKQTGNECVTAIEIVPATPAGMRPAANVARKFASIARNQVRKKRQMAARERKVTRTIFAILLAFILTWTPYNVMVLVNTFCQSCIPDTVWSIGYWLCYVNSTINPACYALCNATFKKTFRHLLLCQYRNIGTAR

[5] = target: Sodium-dependent dopamine transporter (Homo sapiens) (UniProt Q01959); settings: Compound concentration 10.0 uM; remark: listed apart in the source
[6] = target: Cannabinoid receptor 1 (Homo sapiens) (UniProt P21554); settings: Compound concentration 10.0 uM
[7] = target: T2, Prostaglandin E2 receptor EP1 subtype (Homo sapiens) (UniProt P34995); test: Prostanoid EP1 Eurofins-Panlabs radioligand binding assay; design: ligand concentration 1 nM
T2 sequence (whole entry): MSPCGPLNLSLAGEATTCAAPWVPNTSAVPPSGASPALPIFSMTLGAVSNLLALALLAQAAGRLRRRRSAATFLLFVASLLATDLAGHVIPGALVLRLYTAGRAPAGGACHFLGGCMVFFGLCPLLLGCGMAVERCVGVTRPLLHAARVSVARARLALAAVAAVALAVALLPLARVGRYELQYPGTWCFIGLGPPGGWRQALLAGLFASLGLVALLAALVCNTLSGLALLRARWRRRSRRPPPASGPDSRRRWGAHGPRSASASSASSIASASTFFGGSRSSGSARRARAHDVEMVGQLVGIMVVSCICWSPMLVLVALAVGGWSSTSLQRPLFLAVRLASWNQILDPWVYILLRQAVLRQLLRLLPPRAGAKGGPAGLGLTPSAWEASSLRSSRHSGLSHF

[8] = target: B1 bradykinin receptor (Homo sapiens) (UniProt P46663); test: Inhibition of Bradykinin B1 at 10 µM in the Eurofins-Panlabs radioligand binding assay (Eurofins_assay_212510); settings: Compound concentration 10.0 uM
[9] = target: Type-2 angiotensin II receptor (Homo sapiens) (UniProt P50052); settings: Compound concentration 10.0 uM
[10] = target: GABA-A receptor; anion channel (Rattus norvegicus) (UniProt O09028+P15431+P18506+P18508+P19969+P20236+P23574+P23576+P28471+P28473+P30191+P62813+P63079+P63138+Q91ZM7+Q9ES14); settings: Compound concentration 10.0 uM
[11] = target: Endothelin-1 receptor (Homo sapiens) (UniProt P25101); settings: Compound concentration 10.0 uM
[12] = target: Adenosine receptor A3 (Homo sapiens) (UniProt P0DMS8); settings: Compound concentration 10.0 uM
[13] = target: Gamma-aminobutyric acid type B receptor subunit 1 (Homo sapiens) (UniProt Q9UBS5); settings: Rattus norvegicus; Compound concentration 10.0 uM
[14] = target: Prostaglandin E2 receptor EP4 subtype (Homo sapiens) (UniProt P35408); test: Inhibition of Prostanoid EP4 at 10 µM in the Eurofins-Panlabs radioligand binding assay (Eurofins_assay_268420); design: ligand concentration 1 nM
[15] = target: T3, Prostaglandin E2 receptor EP3 subtype (Homo sapiens) (UniProt P43115); test: Prostanoid EP3 Eurofins-Panlabs radioligand binding assay; design: ligand concentration 0.5 nM
T3 sequence (whole entry): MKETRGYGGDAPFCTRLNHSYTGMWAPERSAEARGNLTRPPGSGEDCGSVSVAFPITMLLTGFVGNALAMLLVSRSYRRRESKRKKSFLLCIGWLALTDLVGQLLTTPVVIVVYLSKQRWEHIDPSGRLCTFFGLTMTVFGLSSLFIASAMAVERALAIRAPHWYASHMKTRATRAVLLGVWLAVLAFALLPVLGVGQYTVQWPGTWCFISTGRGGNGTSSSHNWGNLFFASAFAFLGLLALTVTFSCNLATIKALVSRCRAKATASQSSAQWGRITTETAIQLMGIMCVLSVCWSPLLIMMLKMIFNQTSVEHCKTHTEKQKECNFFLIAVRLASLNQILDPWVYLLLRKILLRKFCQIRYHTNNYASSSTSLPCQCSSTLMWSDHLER

[16] = target: Cannabinoid receptor 2 (Homo sapiens) (UniProt P34972); settings: Compound concentration 10.0 uM
[17] = target: Delta-type opioid receptor (Homo sapiens) (UniProt P41143); settings: Compound concentration 10.0 uM
[18] = Compound concentration 0.001 uM

Measured: inhibition

Chain of Prostaglandin E2 receptor EP4 subtype (Homo sapiens) (P35408 whole entry): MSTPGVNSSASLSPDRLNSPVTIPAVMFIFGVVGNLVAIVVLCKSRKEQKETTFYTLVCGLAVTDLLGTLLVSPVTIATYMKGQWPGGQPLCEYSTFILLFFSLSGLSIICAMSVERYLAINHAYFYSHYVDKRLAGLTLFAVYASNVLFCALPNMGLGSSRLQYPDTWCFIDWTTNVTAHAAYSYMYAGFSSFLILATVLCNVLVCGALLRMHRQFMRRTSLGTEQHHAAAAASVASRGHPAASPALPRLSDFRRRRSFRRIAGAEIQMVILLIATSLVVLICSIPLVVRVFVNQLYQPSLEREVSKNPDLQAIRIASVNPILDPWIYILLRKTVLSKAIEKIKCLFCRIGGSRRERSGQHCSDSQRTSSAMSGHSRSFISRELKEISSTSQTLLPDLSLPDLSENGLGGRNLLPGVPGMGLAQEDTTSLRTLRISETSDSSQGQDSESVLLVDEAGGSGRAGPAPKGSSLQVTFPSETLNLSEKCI
Chain of Sodium-dependent dopamine transporter (Homo sapiens) (Q01959 whole entry): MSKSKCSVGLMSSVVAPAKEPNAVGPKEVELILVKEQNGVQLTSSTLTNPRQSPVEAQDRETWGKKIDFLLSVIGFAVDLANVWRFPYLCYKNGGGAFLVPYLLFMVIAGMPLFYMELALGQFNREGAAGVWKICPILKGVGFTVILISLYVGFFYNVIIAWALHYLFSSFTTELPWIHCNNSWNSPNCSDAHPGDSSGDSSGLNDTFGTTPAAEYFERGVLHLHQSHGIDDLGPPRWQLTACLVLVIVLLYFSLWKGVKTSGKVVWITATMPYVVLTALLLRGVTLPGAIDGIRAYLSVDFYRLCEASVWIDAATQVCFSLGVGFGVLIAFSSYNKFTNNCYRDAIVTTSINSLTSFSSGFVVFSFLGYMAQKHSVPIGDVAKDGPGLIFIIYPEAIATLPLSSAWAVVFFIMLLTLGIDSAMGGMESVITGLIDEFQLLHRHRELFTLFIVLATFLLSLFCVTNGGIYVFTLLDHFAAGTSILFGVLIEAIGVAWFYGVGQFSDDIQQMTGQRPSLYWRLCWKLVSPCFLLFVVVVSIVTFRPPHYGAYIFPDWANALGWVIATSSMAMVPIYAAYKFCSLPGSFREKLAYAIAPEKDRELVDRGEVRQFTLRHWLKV
Chain of Cannabinoid receptor 1 (Homo sapiens) (P21554 whole entry): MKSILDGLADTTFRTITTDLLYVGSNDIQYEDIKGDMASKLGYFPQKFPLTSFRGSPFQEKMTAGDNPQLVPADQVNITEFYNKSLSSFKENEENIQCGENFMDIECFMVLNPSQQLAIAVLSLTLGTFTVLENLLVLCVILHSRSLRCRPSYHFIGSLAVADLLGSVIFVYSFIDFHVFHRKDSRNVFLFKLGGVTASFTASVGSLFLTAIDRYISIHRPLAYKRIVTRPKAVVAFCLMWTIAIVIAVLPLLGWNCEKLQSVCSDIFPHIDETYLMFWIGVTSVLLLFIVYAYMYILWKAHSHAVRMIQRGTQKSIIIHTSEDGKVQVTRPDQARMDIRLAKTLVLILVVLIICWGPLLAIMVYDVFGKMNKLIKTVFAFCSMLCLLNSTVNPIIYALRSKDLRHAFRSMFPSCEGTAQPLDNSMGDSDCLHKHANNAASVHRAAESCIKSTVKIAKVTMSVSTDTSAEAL
Chain of Gamma-aminobutyric acid type B receptor subunit 1 (Homo sapiens) (Q9UBS5 whole entry): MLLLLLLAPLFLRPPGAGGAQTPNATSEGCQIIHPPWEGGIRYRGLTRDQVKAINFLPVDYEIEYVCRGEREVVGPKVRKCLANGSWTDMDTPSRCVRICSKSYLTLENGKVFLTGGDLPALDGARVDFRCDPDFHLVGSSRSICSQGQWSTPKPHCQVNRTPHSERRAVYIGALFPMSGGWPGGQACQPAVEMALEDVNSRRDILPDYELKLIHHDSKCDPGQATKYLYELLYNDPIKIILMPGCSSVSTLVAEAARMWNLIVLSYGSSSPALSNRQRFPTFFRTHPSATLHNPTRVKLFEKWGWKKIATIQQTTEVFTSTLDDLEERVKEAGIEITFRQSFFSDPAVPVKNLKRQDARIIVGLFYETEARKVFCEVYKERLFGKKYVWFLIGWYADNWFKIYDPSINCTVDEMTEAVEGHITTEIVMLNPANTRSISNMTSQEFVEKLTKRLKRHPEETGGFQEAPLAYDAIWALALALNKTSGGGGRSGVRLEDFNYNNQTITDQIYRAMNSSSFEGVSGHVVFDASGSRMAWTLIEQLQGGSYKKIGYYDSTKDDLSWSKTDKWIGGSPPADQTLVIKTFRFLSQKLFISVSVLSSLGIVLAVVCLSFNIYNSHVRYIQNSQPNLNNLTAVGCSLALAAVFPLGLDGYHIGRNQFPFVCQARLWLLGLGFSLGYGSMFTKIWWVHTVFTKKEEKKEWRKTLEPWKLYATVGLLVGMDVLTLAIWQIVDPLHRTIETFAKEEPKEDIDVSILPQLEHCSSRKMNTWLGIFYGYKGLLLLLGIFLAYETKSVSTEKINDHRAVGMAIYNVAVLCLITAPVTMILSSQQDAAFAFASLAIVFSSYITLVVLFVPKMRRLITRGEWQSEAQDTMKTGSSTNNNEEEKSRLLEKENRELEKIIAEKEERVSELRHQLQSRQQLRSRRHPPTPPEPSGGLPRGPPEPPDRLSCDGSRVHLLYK
Chain of 5-hydroxytryptamine receptor 1E (Homo sapiens) (P28566 whole entry): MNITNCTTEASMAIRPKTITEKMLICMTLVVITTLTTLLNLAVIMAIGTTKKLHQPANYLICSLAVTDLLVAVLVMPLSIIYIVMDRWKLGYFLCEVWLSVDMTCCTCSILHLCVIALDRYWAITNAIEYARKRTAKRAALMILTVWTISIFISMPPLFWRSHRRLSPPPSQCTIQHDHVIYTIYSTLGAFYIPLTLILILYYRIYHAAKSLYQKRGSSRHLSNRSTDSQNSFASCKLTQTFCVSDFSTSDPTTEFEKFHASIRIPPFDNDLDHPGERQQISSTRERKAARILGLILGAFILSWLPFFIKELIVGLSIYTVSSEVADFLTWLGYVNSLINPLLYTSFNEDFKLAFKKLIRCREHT
Chain of B1 bradykinin receptor (Homo sapiens) (P46663 whole entry): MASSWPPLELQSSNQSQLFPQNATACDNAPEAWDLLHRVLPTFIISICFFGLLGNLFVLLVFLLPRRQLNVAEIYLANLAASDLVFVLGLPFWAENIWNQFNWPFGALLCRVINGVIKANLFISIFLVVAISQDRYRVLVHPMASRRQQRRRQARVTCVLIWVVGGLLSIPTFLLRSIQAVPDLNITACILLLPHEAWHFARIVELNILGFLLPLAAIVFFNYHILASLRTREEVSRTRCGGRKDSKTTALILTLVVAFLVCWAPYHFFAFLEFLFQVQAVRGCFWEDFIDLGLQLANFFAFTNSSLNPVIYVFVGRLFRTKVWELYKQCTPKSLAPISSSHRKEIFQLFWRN
Chain of Delta-type opioid receptor (Homo sapiens) (P41143 whole entry): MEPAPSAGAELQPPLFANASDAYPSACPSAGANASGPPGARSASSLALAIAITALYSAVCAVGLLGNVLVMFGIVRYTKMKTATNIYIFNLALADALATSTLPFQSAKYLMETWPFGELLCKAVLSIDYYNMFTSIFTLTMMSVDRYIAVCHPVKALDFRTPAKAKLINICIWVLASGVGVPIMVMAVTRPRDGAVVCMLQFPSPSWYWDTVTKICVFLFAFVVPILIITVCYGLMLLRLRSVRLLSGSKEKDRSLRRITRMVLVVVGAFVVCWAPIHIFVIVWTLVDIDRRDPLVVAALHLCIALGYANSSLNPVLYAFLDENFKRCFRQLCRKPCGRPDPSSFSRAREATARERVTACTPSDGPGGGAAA
Chain of Sigma non-opioid intracellular receptor 1 (Homo sapiens) (Q99720 whole entry): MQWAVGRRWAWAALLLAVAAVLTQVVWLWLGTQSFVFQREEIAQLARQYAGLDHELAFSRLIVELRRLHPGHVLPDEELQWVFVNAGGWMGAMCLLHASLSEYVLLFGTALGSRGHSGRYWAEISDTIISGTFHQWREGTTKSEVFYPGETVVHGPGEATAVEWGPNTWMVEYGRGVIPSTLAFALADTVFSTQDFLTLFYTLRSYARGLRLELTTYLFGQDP
Chain of Type-2 angiotensin II receptor (Homo sapiens) (P50052 whole entry): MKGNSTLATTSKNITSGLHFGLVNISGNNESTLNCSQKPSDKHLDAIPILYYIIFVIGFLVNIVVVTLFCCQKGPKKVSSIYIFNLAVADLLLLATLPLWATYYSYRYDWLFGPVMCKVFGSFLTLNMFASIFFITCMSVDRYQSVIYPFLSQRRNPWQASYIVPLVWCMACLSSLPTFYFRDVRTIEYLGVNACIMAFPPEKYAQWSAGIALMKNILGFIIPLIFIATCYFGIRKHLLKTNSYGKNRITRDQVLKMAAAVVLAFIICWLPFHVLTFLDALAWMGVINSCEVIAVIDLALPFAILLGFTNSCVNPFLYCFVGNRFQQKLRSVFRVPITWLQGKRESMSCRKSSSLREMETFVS
Chain of Cannabinoid receptor 2 (Homo sapiens) (P34972 whole entry): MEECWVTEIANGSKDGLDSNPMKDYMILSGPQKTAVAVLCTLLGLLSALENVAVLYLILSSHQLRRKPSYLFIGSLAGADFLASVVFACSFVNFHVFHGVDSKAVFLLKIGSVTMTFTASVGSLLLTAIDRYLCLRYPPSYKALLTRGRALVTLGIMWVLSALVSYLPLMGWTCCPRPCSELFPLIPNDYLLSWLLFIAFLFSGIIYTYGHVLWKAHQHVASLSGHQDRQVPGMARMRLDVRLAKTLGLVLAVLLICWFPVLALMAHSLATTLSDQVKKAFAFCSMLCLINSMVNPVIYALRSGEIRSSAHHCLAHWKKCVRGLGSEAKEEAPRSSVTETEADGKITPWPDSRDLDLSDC
Chain of Adenosine receptor A3 (Homo sapiens) (P0DMS8 whole entry): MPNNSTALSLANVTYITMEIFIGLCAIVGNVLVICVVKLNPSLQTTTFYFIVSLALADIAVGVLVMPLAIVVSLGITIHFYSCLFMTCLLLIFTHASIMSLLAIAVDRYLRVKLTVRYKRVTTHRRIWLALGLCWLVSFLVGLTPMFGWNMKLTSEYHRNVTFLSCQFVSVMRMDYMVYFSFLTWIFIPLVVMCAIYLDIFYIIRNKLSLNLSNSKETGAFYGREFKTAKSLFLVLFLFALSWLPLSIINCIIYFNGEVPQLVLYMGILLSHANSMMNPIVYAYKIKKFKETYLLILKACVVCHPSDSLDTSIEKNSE

Cc1c(N2CCNCC2)nc2ccc(Br)cc2c1C(=O)NC[C@H](CCC(=O)O)c1ccccc1Cl [BAY-403]
inactive: [1] 33.5% | [2] 18.3% | [3] 36.5%

Cc1c(N2CCCC2)nc2ccc(Br)cc2c1C(=O)NC[C@H](CCC(=O)O)c1ccccc1Cl [BAY-6672]
inactive: [4] 6% | [5] 15% | [6] 10% | [7]; [18] 11% | [7]; Compound concentration 0.01 uM -2% | [7]; Compound concentration 0.1 uM 1% | [7]; Compound concentration 1.0 uM -5% | [7]; Compound concentration 10.0 uM 22% | [8] 7% | [9] 2% | [10] 26% | [11] -1% | [12] 15% | [13] -4% | [14]; [18] -6% | [14]; Compound concentration 0.01 uM -1% | [14]; Compound concentration 0.1 uM 6% | [14]; Compound concentration 1.0 uM 17% | [14]; Compound concentration 10.0 uM 48% | [15]; [18] 7% | [15]; Compound concentration 0.01 uM 2% | [15]; Compound concentration 0.1 uM 17% | [15]; Compound concentration 1.0 uM 10% | [15]; Compound concentration 10.0 uM 15% | [16] 13% | [17] 5%
